The values that follow come from US20230348369A1 (Cytokinetics, Inc., priority 2020, published 2023).

Usually EC50 stands for the midpoint of the concentration-response curve.

Read-outs that look alike come from different tables or passages of the source.

In this assay the target is human NAMPT (Homo sapiens, UniProt P43490). Briefly: Human recombinant enzyme assay (NMN fluorescence biochemical assay, activation of NAMPT). In a few lines:
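Activation of recombinant human NAMPT (6 nM) with 2.5 mM ATP, 20 μM PRPP and 150 μM nicotinamide in 50 mM HEPES pH 7.2, 1 mM DTT, 1 mM CHAPS, 50 mM NaCl, 100 mM MgCl2; 60 min, ambient temperature. NMN formed was derivatized with acetophenone/KOH/formic acid, fluorescence read at 355/460 nm after 40 min.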

Where [1] appears, read: Table A, human recombinant NAMPT, NMN formation, 60 min.
The mark [2] stands for this setting: Table A, human recombinant NAMPT, NMN formation, 60 min, read-out: EC50 Human.

Sequence of human NAMPT (P43490 whole entry): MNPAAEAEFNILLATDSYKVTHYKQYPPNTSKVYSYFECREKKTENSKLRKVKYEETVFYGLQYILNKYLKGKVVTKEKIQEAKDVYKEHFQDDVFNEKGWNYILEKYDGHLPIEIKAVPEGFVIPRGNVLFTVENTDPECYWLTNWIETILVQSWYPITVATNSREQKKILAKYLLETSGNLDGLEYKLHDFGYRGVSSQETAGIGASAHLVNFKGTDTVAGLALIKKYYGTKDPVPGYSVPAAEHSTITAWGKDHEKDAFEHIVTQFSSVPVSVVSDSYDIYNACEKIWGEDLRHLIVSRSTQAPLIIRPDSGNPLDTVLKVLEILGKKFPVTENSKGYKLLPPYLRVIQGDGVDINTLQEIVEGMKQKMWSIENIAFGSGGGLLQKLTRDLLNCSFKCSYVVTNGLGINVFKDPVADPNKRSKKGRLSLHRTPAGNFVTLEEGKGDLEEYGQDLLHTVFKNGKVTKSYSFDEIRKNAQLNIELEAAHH

With `O=C(NCc1ccc(Cl)cc1)NC1CC2(C1)CC(C(O)c1ccccc1)C2` (stereo not drawn) [Compound 328, 1-(4-chlorobenzyl)-3-(6-(hydroxy(phenyl)methyl)spiro[3.3]heptan-2-yl)urea], under setting [1], the “AC1.4 Human” value was determined as 1.2 µM. In addition, the EC50 under setting [2] was 4.3 µM.

Take `COc1ccc(CNC(=O)NC2CC3(C2)CC(C(=O)NCCc2ccccc2)C3)cc1` (stereo not drawn) [Compound 69, 6-(3-(4-methoxybenzyl)ureido)-N-phenethylspiro[3.3]heptane-2-carboxamide]: the EC50 amounted to 38.4 µM. Under setting [1], the “AC1.4 Human” value was 4.7 µM.

For the molecule `O=C(CCCCCNC(=O)NCc1ccc(Cl)cc1)Nc1ccc(F)cc1` [Compound 284, 6-(3-(4-chlorobenzyl)ureido)-N-(4-fluorophenyl)hexanamide], the “AC1.4 Human” value under setting [1] is 2.8 µM. Also, the concentration giving a half-maximal response (EC50) under setting [2] stood at 4.2 µM.

Take `CC(C)(O)CN1CCN(C(=O)CC2CC3(C2)CC(NC(=O)NCc2ccc(Cl)cc2)C3)CC1` (stereo not drawn) [Compound 234, 1-(4-chlorobenzyl)-3-(6-(2-(4-(2-hydoxy-2-methylpropyl)piperazin-1-yl)-2-oxoethyl)spiro[3.3]heptan-2-yl)urea]: the “AC1.4 Human” value under setting [1] was determined as 3.7 µM. In addition, the EC50 under setting [2] is 8.6 µM.

Regarding `CC(C)(O)CN1CCN(C(=O)[C@H]2C[C@]3(C[C@H](NC(=O)NCc4ccc(Cl)cc4)C3)C2)CC1` (single isomer, unassigned) [Compound 182], the EC50 worked out at 20.5 µM.

Turning to `Cn1cc(C(=O)N2CCC(CCCCNC(=O)NCc3ccc(Cl)cc3)CC2)nn1` [Compound 312, 1-(4-chlorobenzyl)-3-(4-(1-(1-methyl-1H-1,2,3-triazole-4-carbonyl)piperidin-4-yl)butyl)urea], the “AC1.4 Human” value under setting [1] came out at 1.5 µM. The EC50 under setting [2] was found to be 5.4 µM.

Take `NC(=O)c1ccc(CNC(=O)NC2CC3(C2)CN(C(=O)c2ccc(Cl)cc2)C3)cc1` [Compound 224, 4-((3-(2-(4-chlorobenzoyl)-2-azaspiro[3.3]heptan-6-yl)ureido)methyl)benzamide]: the “AC1.4 Human” value under setting [1] came to 0.6 µM. The concentration for a half-maximal effect (EC50) under setting [2] amounted to 47.5 µM.

Take `O=C(CCCCCNC(=O)NCc1ccc(Cl)cc1)Nc1ccccc1F` [Compound 272, 6-(3-(4-chlorobenzyl)ureido)-N-(2-fluorophenyl)hexanamide]: under setting [1], the “AC1.4 Human” value was 0.9 µM. Also, the EC50 under setting [2] is 2.6 µM.

Regarding `COc1ccc(CNC(=O)NC2CC3(C2)CC(C(=O)N[C@H]2C[C@H](c4ccccc4)C2)C3)cc1` (stereo partly drawn) [Compound 63, 6-(3-(4-methoxybenzyl)ureido)-N-((1r,3r)-3-phenylcyclobutyl)spiro[3.3]heptane-2-carboxamide], the “AC1.4 Human” value under setting [1] was determined as 4.4 µM. The EC50 under setting [2] stood at 4.4 µM.

With `CN(C(=O)CCCCCNC(=O)NCc1ccncc1)c1ccccc1F` [Compound 286, N-(2-fluorophenyl)-N-methyl-6-(3-(pyridin-4-ylmethyl)ureido)hexanamide], the “AC1.4 Human” value under setting [1] is 0.2 µM. Also, the EC50 under setting [2] stood at 2 µM.

Take `CC(C)(C)CN1CCN(C(=O)CCCCCNC(=O)NCc2ccc(Cl)cc2)CC1` [Compound 260, 1-(4-chlorobenzyl)-3-(6-(4-neopentylpiperazin-1-yl)-6-oxohexyl)urea]: the “AC1.4 Human” value under setting [1] stood at 2.0 µM. In addition, under setting [2], the EC50 worked out at 17.5 µM.

On to `COc1ccc(CNC(=O)NC2CC3(C2)CC(C(=O)NC2CCCc4ccc(F)cc42)C3)cc1` (stereo in doubt) [Compound 97, (S)-N-(7-fluoro-1,2,3,4-tetrahydronaphthalen-1-yl)-6-(3-(4-methoxybenzyl)ureido)spiro[3.3]heptane-2-carboxamide], for which the “AC1.4 Human” value under setting [1] is 1.3 µM. Besides, under setting [2], the EC50 is 2.7 µM.

Regarding `COc1ccc(CNC(=O)NC2CC3(C2)CC(C(=O)N2CCCc4cc(F)ccc42)C3)cc1` (stereo not drawn) [Compound 101, 1-(6-(6-fluoro-1,2,3,4-tetrahydroquinoline-1-carbonyl)spiro[3.3]heptan-2-yl)-3-(4-methoxybenzyl)urea], the “AC1.4 Human” value under setting [1] stood at 0.2 µM. Besides, the EC50 under setting [2] came out at 2.7 µM.

For the molecule `COc1ccc(CNC(=O)NC2CC3(C2)CC(C(=O)N2CCCc4cc(OC(F)(F)F)ccc42)C3)cc1` (stereo not drawn) [Compound 107, 1-(4-methoxybenzyl)-3-(6-(6-(trifluoromethoxy)-1,2,3,4-tetrahydroquinoline-1-carbonyl)spiro[3.3]heptan-2-yl)urea], under setting [1], the “AC1.4 Human” value came to 2.9 µM. In addition, under setting [2], the EC50 amounted to 48.8 µM.

On to `O=C(NCc1ccc(Cl)cc1)NC1CC2(C1)CN(S(=O)(=O)c1cccc(Cl)c1)C2` [Compound 217, 1-(4-chlorobenzyl)-3-(2-((3-chlorophenyl)sulfonyl)-2-azaspiro[3.3]heptan-6-yl)urea], for which the “AC1.4 Human” value under setting [1] was determined as 19.2 µM. The EC50 under setting [2] was determined as 20.1 µM.

For `COc1ccc(CNC(=O)NC2CC3(C2)CN(C(=O)c2cccc(N(C)C)c2)C3)cc1` [Compound 178, 1-(2-(3-(dimethylamino)benzoyl)-2-azaspiro[3.3]heptan-6-yl)-3-(4-methoxybenzyl)urea], under setting [1], the “AC1.4 Human” value is 3.1 µM. Under setting [2], the EC50 is 21.4 µM.

`Cc1cccc(N(C)C(=O)CCCCCNC(=O)NCc2ccc(Cl)cc2)c1` [Compound 264, 6-(3-(4-chlorobenzyl)ureido)-N-methyl-N-(m-tolyl)hexanamide]: the “AC1.4 Human” value under setting [1] is 1.0 µM. Further, the EC50 under setting [2] was 6.7 µM.

In the case of `COc1ccc(CNC(=O)NC2CC3(C2)CC(C(=O)NC2CCCc4ccccc42)C3)cc1` (stereo in doubt) [Compound 100, (R)-6-(3-(4-methoxybenzyl)ureido)-N-(1,2,3,4-tetrahydronaphthalen-1-yl)spiro[3.3]heptane-2-carboxamide], the “AC1.4 Human” value under setting [1] came out at 8.5 µM. Further, the EC50 under setting [2] came out at 10.3 µM.

In the case of `O=C(NCc1ccc(Cl)cc1)NC1CC2(CC(Cn3cncn3)C2)C1` (stereo not drawn) [Compound 339, 1-(6-((1H-1,2,4-triazol-1-yl)methyl)spiro[3.3]heptan-2-yl)-3-(4-chlorobenzyl)urea], the “AC1.4 Human” value under setting [1] was determined as 4.6 µM. Besides, the EC50 under setting [2] was determined as 6.5 µM.

Consider `O=C(NCc1cn[nH]c1)NC1CC2(C1)CC(NC(=O)c1ccccc1)C2` (stereo not drawn) [Compound 17, N-(6-(3-((1H-pyrazol-4-yl)methyl)ureido)spiro[3.3]heptan-2-yl)benzamide], for which the “AC1.4 Human” value under setting [1] stood at 17.6 µM. Further, the EC50 under setting [2] came to 50.5 µM.

As to `COc1ccc(CNC(=O)NC2CC3(C2)CN(C(=O)c2cccc(N4CCCCC4)c2)C3)cc1` [Compound 190, 1-(4-methoxybenzyl)-3-(2-(3-(piperidin-1-yl)benzoyl)-2-azaspiro[3.3]heptan-6-yl)urea], under setting [1], the “AC1.4 Human” value was found to be 1.8 µM. Further, the EC50 under setting [2] is 34 µM.

For the molecule `O=C(NCc1ccc(Cl)cc1)NC1CC2(CC(CS(=O)(=O)c3ccccc3)C2)C1` (stereo not drawn) [Compound 352, 1-(4-chlorobenzyl)-3-(6-((phenylsulfonyl)methyl)spiro[3.3]heptan-2-yl)urea], the “AC1.4 Human” value under setting [1] is 6.0 µM. Moreover, the EC50 under setting [2] came out at 8 µM.

On to `COc1ccc(CNC(=O)NC2CC3(CC(CN4CCCC4c4ccccc4)C3)C2)cc1` (stereo not drawn) [Compound 52, 1-(4-methoxybenzyl)-3-(6-((2-phenylpyrrolidin-1-yl)methyl)spiro[3.3]heptan-2-yl)urea], for which, under setting [1], the “AC1.4 Human” value worked out at 4.2 µM. Moreover, under setting [2], the EC50 was 43.8 µM.

Take `O=C(NCc1ccc(Cl)cc1)NC1CC2(C1)CC(N(Cc1ccccc1)Cc1ccccc1)C2` (stereo not drawn) [Compound 119, 1-(4-chlorobenzyl)-3-(6-(dibenzylamino)spiro[3.3]heptan-2-yl)urea]: under setting [1], the “AC1.4 Human” value stood at 3.8 µM. Besides, the EC50 under setting [2] came to 16.7 µM.

With `Cc1cc(C(=O)NCC2CC3(C2)CC(NC(=O)NCc2ccc(Cl)cc2)C3)ccn1` (stereo not drawn) [Compound 246, N-((6-(3-(4-chlorobenzyl)ureido)spiro[3.3]heptan-2-yl)methyl)-2-methylisonicotinamide], the “AC1.4 Human” value under setting [1] was found to be 2.1 µM. Further, the EC50 under setting [2] is 4.2 µM.

As for `CN(C)c1ccccc1C(=O)NC1CC2(CC(NC(=O)NCc3ccc(Cl)cc3)C2)C1` (stereo not drawn) [Compound 209, N-(6-(3-(4-chlorobenzyl)ureido)spiro[3.3]heptan-2-yl)-2-(dimethylamino)benzamide], under setting [1], the “AC1.4 Human” value came out at 10.6 µM. Further, the EC50 under setting [2] came out at 38.5 µM.

Regarding `CC(C)(C)OC(=O)N1CC[C@]2(C1)C[C@@H](NC(=O)NCc1ccc(Cl)cc1)C2` [Compound 151, tert-butyl (2r,4s)-2-(3-(4-chlorobenzyl)ureido)-6-azaspiro[3.4]octane-6-carboxylate], the “AC1.4 Human” value under setting [1] was 6.8 µM. For the same molecule, the concentration giving a half-maximal response (EC50) under setting [2] is 41.2 µM.

As to `COc1ccc(CNC(=O)NC2CC3(C2)CC(C(=O)N2CCCc4c(F)cccc42)C3)cc1` (stereo not drawn) [Compound 105, 1-(6-(5-fluoro-1,2,3,4-tetrahydroquinoline-1-carbonyl)spiro[3.3]heptan-2-yl)-3-(4-methoxybenzyl)urea], the “AC1.4 Human” value under setting [1] was found to be 0.1 µM. The EC50 under setting [2] came to 2.2 µM.

With `COc1ccc(CNC(=O)NC2CC3(C2)CN(C(=O)c2ccc(=O)n(C)c2)C3)cc1` [Compound 144, 1-(4-methoxybenzyl)-3-(2-(1-methyl-6-oxo-1,6-dihydropyridine-3-carbonyl)-2-azaspiro[3.3]heptan-6-yl)urea], under setting [1], the “AC1.4 Human” value came to 16.0 µM. For the same molecule, under setting [2], the EC50 is 54 µM.

Turning to `Cc1ccncc1C(=O)NC1CC2(CC(NC(=O)NCc3ccc(Cl)cc3)C2)C1` (stereo not drawn) [Compound 205, N-(6-(3-(4-chlorobenzyl)ureido)spiro[3.3]heptan-2-yl)-4-methylnicotinamide], the “AC1.4 Human” value under setting [1] was determined as 10.0 µM. Under setting [2], the EC50 is 23.6 µM.

Turning to `COc1ccc(CNC(=O)NC2CC3(C2)CC(Oc2cccnc2)C3)cc1` (stereo not drawn) [Compound 344, 1-(4-methoxybenzyl)-3-(6-(pyridin-3-yloxy)spiro[3.3]heptan-2-yl)urea], the “AC1.4 Human” value under setting [1] amounted to 3.1 µM. Further, the EC50 under setting [2] is 34.9 µM.

Turning to `COC(=O)c1cccc(C(=O)N2CC3(CC(NC(=O)NCc4ccc(OC)cc4)C3)C2)c1` [Compound 181, methyl 3-(6-(3-(4-methoxybenzyl)ureido)-2-azaspiro[3.3]heptane-2-carbonyl)benzoate], the “AC1.4 Human” value under setting [1] worked out at 3.0 µM. Further, the EC50 under setting [2] was 29.7 µM.
